Test results from patent US20170022171A1, “2,5-DISUBSTITUTED CYCLOPENTANECARBOXYLIC ACIDS AND THEIR USE” (Bayer Pharma Aktiengesellschaft, priority 2014, published 2017).

Key:
Format in all cases: biochemical
MMP-2 = target: T1, MMP-2 (Homo sapiens, UniProt P08253); experiment: In vitro MMP-2 inhibition test
T1 construct: purchased R&D Systems 902-MP
T1 sequence (P08253 110-660): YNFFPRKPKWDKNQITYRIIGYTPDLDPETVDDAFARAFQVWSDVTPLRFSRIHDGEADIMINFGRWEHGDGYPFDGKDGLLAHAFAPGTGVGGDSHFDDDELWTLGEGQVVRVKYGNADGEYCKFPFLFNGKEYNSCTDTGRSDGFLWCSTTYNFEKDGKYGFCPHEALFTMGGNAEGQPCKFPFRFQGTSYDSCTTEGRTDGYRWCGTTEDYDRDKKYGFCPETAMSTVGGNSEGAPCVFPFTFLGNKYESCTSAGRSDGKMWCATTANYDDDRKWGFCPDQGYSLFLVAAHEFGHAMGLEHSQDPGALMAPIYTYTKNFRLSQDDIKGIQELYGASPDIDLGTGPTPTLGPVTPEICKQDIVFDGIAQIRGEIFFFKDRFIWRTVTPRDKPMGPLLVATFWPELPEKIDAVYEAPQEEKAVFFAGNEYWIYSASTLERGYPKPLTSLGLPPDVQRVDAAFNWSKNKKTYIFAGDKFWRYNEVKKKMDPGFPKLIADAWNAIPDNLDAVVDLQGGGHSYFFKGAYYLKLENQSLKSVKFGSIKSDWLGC
Description: (§1) The MMP-mediated amidolytic cleavage of a suitable peptide substrate leads to an increase in fluorescent light here too. The signal intensity of the fluorescent light is directly proportional to the enzyme activity. The active concentration of a test compound at which half the enzyme is inhibited (50% signal intensity of the fluorescent light) is reported as the IC50 value.
(§2) Recombinant MMP-2 (from R&D Systems, 902-MP) is chemically activated in accordance with the manufacturer's instructions using APMA. 1 μl of the test compound to be analysed (as a solution in DMSO, suitable concentrations, for example, 1 nM to 30 μM) is pipetted into 24 μl of activated enzyme (final concentration, for example, 2 nM) in reaction buffer (50 mM Tris/HCl pH 7.5, 10 mM CaCl2, 150 mM NaCl, 0.05% Brij®-35) in a white 384-hole microtiter plate (MTP). The enzymatic reaction is started by adding the intramolecularly quenched Mca-Pro-Leu-Gly-Leu-Dpa(Dnp)-Ala-Arg-NH2 substrate (final concentration, for example, 10 μM; R&D Systems, ES-001), so as to result in a total test volume of 50 μl. The course of the MMP-2 reaction is measured by measuring the fluorescence intensity (excitation 320 nm, emission 410 nm) over a suitable period of time (for example over 120 min at a temperature of 32° C.).

MMP-1 = target: T2, MMP-1 (Homo sapiens, UniProt P03956); experiment: In vitro MMP-1 inhibition test
T2 construct: purchased R&D Systems 901-MP
T2 sequence (P03956 100-469): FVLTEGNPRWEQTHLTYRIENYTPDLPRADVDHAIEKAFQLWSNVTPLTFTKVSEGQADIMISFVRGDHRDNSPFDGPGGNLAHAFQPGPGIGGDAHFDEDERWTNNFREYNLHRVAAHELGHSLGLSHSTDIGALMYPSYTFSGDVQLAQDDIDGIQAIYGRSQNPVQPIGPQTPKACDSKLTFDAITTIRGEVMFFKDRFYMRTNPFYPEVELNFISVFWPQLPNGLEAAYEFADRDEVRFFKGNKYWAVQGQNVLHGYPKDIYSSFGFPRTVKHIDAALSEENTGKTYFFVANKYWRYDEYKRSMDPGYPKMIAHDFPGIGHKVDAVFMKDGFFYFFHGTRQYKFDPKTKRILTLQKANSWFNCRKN
Description: as §1
as §2, with “MMP-1” for “MMP-2”, “901-MP)” for “902-MP)”

MMP-7 = target: T3, MMP-7 (Homo sapiens, UniProt P09237); experiment: In vitro MMP-7 inhibition test
T3 construct: purchased R&D Systems 907-MP
T3 sequence (P09237 95-267): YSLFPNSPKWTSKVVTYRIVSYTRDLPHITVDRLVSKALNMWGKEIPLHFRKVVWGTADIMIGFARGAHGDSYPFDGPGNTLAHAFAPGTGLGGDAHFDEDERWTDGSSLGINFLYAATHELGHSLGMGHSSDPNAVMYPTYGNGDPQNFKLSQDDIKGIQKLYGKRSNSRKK
Description: as §1
as §2, with “Recombinant MMP-7” for “Recombinant MMP-2”, “Systems, 907-MP)” for “Systems, 902-MP)”, “example, 0.5” for “example, 2”, “[…]” for “50 μl.”, “the MMP-7” for “the MMP-2”

Molecule | IC50 (MMP-2) [nM] | IC50 (MMP-1) [nM] | IC50 (MMP-7) [nM]
Cc1ccc2nnn(C[C@@H]3CC[C@H](C(=O)c4ccc(OCc5cccc(Cl)c5)cc4)[C@H]3C(=O)O)c(=O)c2c1 (racemic) [Example 103, (+/−)-(1RS,2RS,5SR)-2-{4-[(3-Chlorobenzyl)oxy]benzoyl}-5-[(6-methyl-4-oxo-1,2,3-benzotriazin-3(4H)-yl)methyl]cyclopentanecarboxylic acid] | 370 | 9700 | 330
(+)-(1RS,2SR,5RS)-2-{[4-Oxo-6-(trifluoromethyl)-1,2,3-benzotriazin-3(4H)-yl]methyl}-5-{4-[(2-phenylethy)sulphanyl]benzoyl}cyclopentanecarboxylic acid [Example 83] | 6700 | > 40000 | 160
Cc1cccc(COc2ccc(C(=O)[C@@H]3CC[C@H](Cn4nnc5ccc(C(F)(F)F)cc5c4=O)[C@H]3C(=O)O)cc2)c1 (single isomer, unassigned) [Example 16, (+)-(1RS,2RS,5SR)-2-{4-[(3-Methylbenzyl)oxy]benzoyl}-5-{[4-oxo-6-(trifluoromethyl)-1,2,3-benzotriazin-3(4H)-yl]methyl}cyclopentanecarboxylic acid] | 970 | 7100 | 190
O=C(O)[C@@H]1[C@@H](Cn2nnc3ccc(C(F)(F)F)cc3c2=O)CC[C@H]1C(=O)c1ccc(SCc2ccccc2)cc1 (single isomer, unassigned) [Example 75, (+)-(1RS,2RS,5SR)-2-[4-(Benzylsulphanyl)benzoyl]-5-{[4-oxo-6-(trifluoromethyl)-1,2,3-benzotriazin-3(4H)-yl]methyl}cyclopentanecarboxylic acid] | 4200 | 21000 | 340
Cc1ccc2nnn(C[C@H]3CC[C@@H](C(=O)c4ccc(OCc5cccc(OC(F)(F)F)c5)cc4)[C@@H]3C(=O)O)c(=O)c2c1 (single isomer, unassigned) [Example 110, (+)-(1RS,2SR,5RS)-2-[(6-Methyl-4-oxo-1,2,3-benzotriazin-3(4H)-yl)methyl]-5-(4-{[3-(trifluoromethoxy)benzyl]oxy}benzoyl)cyclopentanecarboxylic acid] | 850 | > 40000 | 1200
Cc1ccc2nnn(C[C@H]3CC[C@@H](C(=O)c4ccc(OCc5cccc(C(F)(F)F)c5)cc4)[C@@H]3C(=O)O)c(=O)c2c1 (single isomer, unassigned) [Example 101, (+)-(1RS,2SR,5RS)-2-[(6-Methyl-4-oxo-1,2,3-benzotriazin-3(4H)-yl)methyl]-5-(4-{[3-(trifluoromethyl)benzyl]oxy}benzoyl)cyclopentanecarboxylic acid] | 380 | 14000 | 720
CCCCCSc1ccc(C(=O)[C@H]2CC[C@@H](Cn3nnc4ccc(C(F)(F)F)cc4c3=O)[C@@H]2C(=O)O)cc1 (racemic) [Example 88, (+/−)-(1RS,2SR,5RS)-2-{[4-Oxo-6-(trifluoromethyl)-1,2,3-benzotriazin-3(4H)-yl]methyl}-5-[4-(pentylsulphanyl)benzoyl]cyclopentanecarboxylic acid] | 190 | 2500 | 120
Cc1ccc2nnn(C[C@@H]3CC[C@H](C(=O)c4ccc(OCc5ccccc5)cc4)[C@H]3C(=O)O)c(=O)c2c1 (racemic) [Example 91, (+/−)-(1RS,2RS,5SR)-2-[4-(Benzyloxy)benzoyl]-5-[(6-methyl-4-oxo-1,2,3-benzotriazin-3(4H)-yl)methyl]cyclopentanecarboxylic acid] | 100 | 5700 | 190
O=C(O)[C@@H]1[C@@H](Cn2nnc3ccc(C(F)(F)F)cc3c2=O)CC[C@H]1C(=O)c1ccc(OCc2ccc(Cl)cc2)cc1 (single isomer, unassigned) [Example 25, (+)-(1RS,2RS,5SR)-2-{4-[(4-Chlorobenzyl)oxy]benzoyl}-5-{[4-oxo-6-(trifluoromethyl)-1,2,3-benzotriazin-3(4H)-yl]methyl}cyclopentanecarboxylic acid] | 79 | 2300 | 120
O=C(O)[C@H]1[C@H](Cn2nnc3ccc(C(F)(F)F)cc3c2=O)CC[C@@H]1C(=O)c1ccc(OCCCc2ccccc2)cc1 (racemic) [Example 39, (+/−)-(1RS,2SR,5RS)-2-{[4-Oxo-6-(trifluoromethyl)-1,2,3-benzotriazin-3(4H)-yl]methyl}-5-[4-(3-phenylpropoxy)benzoyl]cyclopentanecarboxylic acid] | 4600 | > 40000 | 730
COC(=O)Nc1cccc(COc2ccc(C(=O)[C@@H]3CC[C@H](Cn4nnc5ccc(C(F)(F)F)cc5c4=O)[C@H]3C(=O)O)cc2)c1 (stereo in doubt) [Example 31, (+)-(1RS,2RS,5SR)-2-[4-({3-[(Methoxycarbonyl)amino]benzyl}oxy)benzoyl]-5-{[4-oxo-6-(trifluoromethyl)-1,2,3-benzotriazin-3(4H)-yl]methyl}cyclopentanecarboxylic acid] | 830 | 5400 | 79
Cc1ccc2nnn(C[C@@H]3CC[C@H](C(=O)c4ccc(OCc5cccc(C(F)(F)F)c5)cc4)[C@H]3C(=O)O)c(=O)c2c1 (racemic) [Example 100, (+/−)-(1RS,2SR,5RS)-2-[(6-Methyl-4-oxo-1,2,3-benzotriazin-3(4H)-yl)methyl]-5-(4-{[3-(trifluoromethyl)benzyl]oxy}benzoyl)cyclopentanecarboxylic acid] | 540 | > 40000 | 1000
CCCCCCOc1ccc(C(=O)[C@@H]2CC[C@H](Cn3nnc4ccc(C(F)(F)F)cc4c3=O)[C@H]2C(=O)O)cc1 (single isomer, unassigned) [Example 58, (+)-(1RS,2RS,5SR)-2-[4-(Hexyloxy)benzoyl]-5-{[4-oxo-6-(trifluoromethyl)-1,2,3-benzotriazin-3(4H)-yl]methyl}cyclopentanecarboxylic acid] | 580 | 8400 | 180
